For two compounds, Kd results are on record in paper PMC12720125 (Redox Biology, 2025).

The target in assay [1] is T1, lymphoid-specific helicase (LSH) (Homo sapiens, UniProt Q9NRZ9).
T1 sequence (Q9NRZ9 1-838): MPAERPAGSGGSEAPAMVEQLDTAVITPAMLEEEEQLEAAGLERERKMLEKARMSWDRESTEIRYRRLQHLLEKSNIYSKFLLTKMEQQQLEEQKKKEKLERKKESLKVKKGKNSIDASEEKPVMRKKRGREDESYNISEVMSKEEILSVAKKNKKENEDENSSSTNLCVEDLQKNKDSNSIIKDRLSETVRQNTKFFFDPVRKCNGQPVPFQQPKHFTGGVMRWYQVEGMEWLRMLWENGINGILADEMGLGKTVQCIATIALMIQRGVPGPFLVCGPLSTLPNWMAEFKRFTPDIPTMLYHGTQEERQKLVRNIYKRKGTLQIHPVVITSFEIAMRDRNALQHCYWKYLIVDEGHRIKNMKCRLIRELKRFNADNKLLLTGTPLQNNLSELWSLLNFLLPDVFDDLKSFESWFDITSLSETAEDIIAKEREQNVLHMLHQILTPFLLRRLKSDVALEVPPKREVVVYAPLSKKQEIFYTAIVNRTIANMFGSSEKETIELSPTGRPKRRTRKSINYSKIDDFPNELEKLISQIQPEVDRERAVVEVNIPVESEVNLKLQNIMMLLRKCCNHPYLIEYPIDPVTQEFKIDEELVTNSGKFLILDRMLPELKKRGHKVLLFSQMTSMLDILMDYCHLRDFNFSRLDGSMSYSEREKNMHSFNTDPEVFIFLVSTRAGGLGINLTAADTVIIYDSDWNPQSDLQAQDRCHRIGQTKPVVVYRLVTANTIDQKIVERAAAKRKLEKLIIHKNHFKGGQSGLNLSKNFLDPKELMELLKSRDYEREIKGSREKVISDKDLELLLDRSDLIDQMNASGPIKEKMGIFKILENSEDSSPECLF
Briefly: SPR. Type of assay: binding.

The target of assay [2] is T1, lymphoid-specific helicase (LSH). Briefly: KD determination, SPR. Type of assay: binding.

Take `C=C1C(=O)O[C@@H]2O[C@@]3(C)CC[C@H]4[C@H](C)CC[C@@H]1[C@@]24OO3` [ATT, artemisitene]: binding in assay [1] was characterised by a dissociation constant (Kd) of 6.18 µM.
For `C[C@@H]1CC[C@H]2[C@@H](C)C(=O)O[C@@H]3O[C@@]4(C)CC[C@@H]1[C@]32OO4` [artemisinin], in assay [2], the Kd – broadly, the constant that tells how readily two partners part at equilibrium – was 32.2 µM.
